These results are taken from patent US11578058B2, “Heterocyclic compounds for inhibiting TYK2 activities” (Beijing InnoCare Pharma Tech Co., Ltd., priority 2020, dated 2023).

In general, Vss refers to a proportionality between amount in the body and measured concentration, not a real space. A low value points to confinement near the circulation. Usually Cmax stands for the peak of the concentration-time curve.

The subject of data set [1] is anti-CD40 antibody-induced colitis. In words: Anti-CD40 antibody-induced colitis animal model. The class given is in vivo, CB17-Scid mice. Particulars: for Spleen weight, Mean: Day 8; for protection from colitis (body weight loss and spleen enlargement) versus vehicle group: Compound 3 at 1.5, 5 and 15 mg/kg, reference compound at 5 mg/kg, oral twice daily; for body weight loss after treatment in anti-CD40 colitis (IBD) model: mice. How it is done: The female CB17-Scid mice (8-10 weeks old, 18-20 g) from Beijing Vital River laboratory were randomly divided into 5 groups (n=8 per group). On Day 0, colitis was induced in mice each with a single intraperitoneal injection of 100 μg of FGK4.5 anti-CD40 mAb (BioXCell, Cat. No. EB0016-2) in PBS. […] On a daily basis, mice were weighed and monitored for signs of colitis including body weight loss and the accompanying loose stools and diarrhea. On Day 8, all animals were euthanized. Spleen tissues were collected and weighed.

Data set [2] in a line: In vivo rat PK determination. Set-up: species or system Sprague Dawley rats. The note with it: IV (1 mpk); for CL / Vss: n = 3; for T1/2: n = 3 (header span assumed).
A short description of data set [3]: In vivo rat PK determination. Further details: species or system Sprague Dawley rats. The note with it: for F: PO (5 mpk) vs IV (1 mpk); for AUClast / Cmax: PO (5 mpk), n = 3. How it is done: The pharmacokinetics of Compound 3 of the present invention and the reference compound BMS-986165 were evaluated. Compound 3 has an OCD3 on a benzene ring, whereas the reference compound has an CD3 on an amide moiety. Methyl group is typically labile in vivo, subject to hydrolysis by amidase in the case of methylamide and to oxidative demethylation by CYPs in the case of methoxy and methyltriazole. Substituting methyl with tri-deuterated methyl improves the bioavailability and in vivo exposure of the compound and provides a better efficacy of the compound under the same dose.
Compound 3 and the reference compound in a 0.5 mg/mL solution containing 5% N,N-dimethylacetamide+20% solutol+75% saline were orally administered to three male Sprague Dawley rats at a dose of 5 mg/kg. Blood samples were collected at 0.25, 0.5, 1, 2, 4, 8 and 24 hours after administration. The concentrations of the compound in the plasma were quantified by LC-MS/MS using an API-4500 mass spectrometer. The limit of quantification (LOQ) of analysis was 1 ng/mL. The pharmacokinetic (PK) parameters were calculated by the non-compartmental method using WinNonlin and are present in Table 3.

Data set [4] has as its system IL-12-induced IFN-γ secretion in NK92 cells. In words: Inhibition of IL-12-induced IFN-γ secretion in NK92 cells (ELISA). The note with it: Homo sapiens, IL-12, 24 hours, read-out: IC50 (NK92_IL12/IFN-γ). The class given is cell-based. How it is done: The effect of the compounds of the present invention on IFN-γ secretion induced by TYK2 in NK92 cells is evaluated by an enzyme-linked immunosorbent assay (ELISA) (Table 2).
IL-12 receptor is mainly expressed in activated T-cells, NK cells (NK92 is a NK cell line), DC cells, and B-cells. When binding to IL-12, it activates JAK2/TYK2 signal transduction pathway within NK cells and T lymphocytes, thereby inducing secretion of IFN-γ.
The experimental method is generally described below:
The 96-well plate is then incubated overnight in a 37° C./5% CO2 incubator.
The plate is centrifuged at 800 rpm for 10 minutes at room temperature and 50 μL of the supernatant from each well is transferred to another 96-well plate (Sigma, Cat No. CLS3695) coated with anti-IFN-γ antibody. The amount of IFN-γ secretion is detected following the instruction from the Human IFN-gamma DuoSet ELISA kit (R & D Systems, Cat No. DY285B). […] The percentage of inhibition on IL-12 induced IFN-γ secretion in NK-92 cells by the test compound is calculated using the following formula: […]
The IC50 value of the test compound is calculated from 8 concentration points using the XLfit software (ID Business Solutions Ltd., UK) by the following formula: […]
Where Y is the percentage of inhibition, X is the logarithm of the concentration of the test compound, Bottom is the bottom plateau value of the S-shaped curve, Top is the top plateau value of the S-shaped curve, and slope factor is the slope coefficient of the curve.

As to `[2H]C([2H])([2H])NC(=O)c1nnc(NC(=O)C2CC2)cc1Nc1cccc(-c2ncn(C)n2)c1OC` [BMS-986165, reference compound], in data set [1] (5 mg/kg oral twice daily), the “Spleen weight, Mean” value amounted to 0.036 g. Moreover, in data set [1], the “protection from colitis (body weight loss and spleen enlargement) versus vehicle group” value was “significantly protected mice from colitis”. Further, in data set [2], the CL is listed as 14 mL/min/kg, the Vss was found to be 1.5 L/kg and the T1/2 is 3.3 h. Besides, in data set [3], the F was 46%, the AUClast amounted to 2828 ng·h/mL and the maximum concentration (Cmax) amounted to 632 ng/mL. Also, the IC50 in data set [4] came to 17 nM.
With `[2H]C([2H])([2H])NC(=O)c1nnc(NC(=O)C2CC2)cc1Nc1cccc(-c2ncn(C([2H])([2H])[2H])n2)c1OC` [Compound 1, 6-(cyclopropanecarboxamido)-4-((2-methoxy-3-(1-(methyl-d3)-1H-1,2,4-triazol-3-yl)phenyl)amino)-N-(methyl-d3)pyridazine-3-carboxamide], in data set [4], the IC50 amounted to 16 nM.
As to `[2H]C([2H])([2H])n1cnc(-c2cccc(Nc3cc(NC(=O)C4CC4)nnc3C(=O)NC)c2OC)n1` [Compound 2, 6-(cyclopropanecarboxamido)-4-((2-methoxy-3-(1-(methyl-d3)-1H-1,2,4-triazol-3-yl)phenyl)amino)-N-methylpyridazine-3-carboxamide], in data set [1], the “body weight loss after treatment in anti-CD40 colitis (IBD) model” value (“body weight loss after treatment” below) was “no significant body weight loss”. Besides, in data set [4], the IC50 was determined as 13 nM.
For the compound `[2H]C([2H])([2H])Oc1c(Nc2cc(NC(=O)C3CC3)nnc2C(=O)NC)cccc1-c1ncn(C)n1` [Compound 3, 6-(cyclopropanecarboxamido)-4-((2-(methoxy-d3)-3-(1-methyl-1H-1,2,4-triazol-3-yl)phenyl)amino)-N-methylpyridazine-3-carboxamide], in data set [1] (1.5 mg/kg oral twice daily), the “Spleen weight, Mean” value was 0.060 g. Moreover, the “Spleen weight, Mean” value in data set [1] (5 mg/kg oral twice daily) is 0.037 g. The “Spleen weight, Mean” value in data set [1] (15 mg/kg oral twice daily) came out at 0.025 g. In data set [1], the “protection from colitis (body weight loss and spleen enlargement) versus vehicle group” value is given as “significantly protected mice from colitis”; the “body weight loss after treatment” value is “no significant body weight loss”. Besides, in data set [2], the CL worked out at 12 mL/min/kg, the distribution volume (Vss) was found to be 1.1 L/kg and the T1/2 is 4.3 h. In data set [3], this compound registered an F of 92%, an AUClast of 6560 ng·h/mL and a maximum concentration (Cmax) of 971 ng/mL. Also, the “in vivo exposure compared with reference compound” value in data set [3] (oral 5 mg/kg) is “better in vivo exposures than the reference compound”. Moreover, the IC50 in data set [4] turned out to be 14 nM.
`[2H]C([2H])([2H])NC(=O)c1nnc(NC(=O)C2CC2)cc1Nc1cccc(-c2ncn(C)n2)c1OC([2H])([2H])[2H]` [Compound 4, 6-(cyclopropanecarboxamido)-4-((2-(methoxy-d3)-3-(1-methyl-1H-1,2,4-triazol-3-yl)phenyl)amino)-N-(methyl-d3)pyridazine-3-carboxamide]: the IC50 in data set [4] is 11 nM.
On to `[2H]C([2H])([2H])NC(=O)c1nnc(NC(=O)[C@@H]2CC2(F)F)cc1Nc1cccc(-c2ncn(C)n2)c1OC` [Compound 5, (S)-6-(2,2-difluorocyclopropane-1-carboxamido)-4-((2-methoxy-3-(1-methyl-1H-1,2,4-triazol-3-yl)phenyl)amino)-N-(methyl-d3)pyridazine-3-carboxamide], for which the “body weight loss after treatment” value in data set [1] is “no significant body weight loss”. In data set [4], the IC50 is 52 nM.
As for `CNC(=O)c1nnc(NC(=O)[C@@H]2CC2(F)F)cc1Nc1cccc(-c2ncn(C)n2)c1OC` [Compound 6, (S)-6-(2,2-difluorocyclopropane-1-carboxamido)-4-((2-methoxy-3-(1-methyl-1H-1,2,4-triazol-3-yl)phenyl)amino)-N-methylpyridazine-3-carboxamide], in data set [4], the IC50 is 47 nM.
On to `[2H]C([2H])([2H])NC(=O)c1nnc(NC(=O)[C@H]2CC2(F)F)cc1Nc1cccc(-c2ncn(C)n2)c1OC` [Compound 7, (R)-6-(2,2-difluorocyclopropane-1-carboxamido)-4-((2-methoxy-3-(1-methyl-1H-1,2,4-triazol-3-yl)phenyl)amino)-N-(methyl-d3)pyridazine-3-carboxamide], for which, in data set [4], the IC50 stood at 74 nM.
